Experimental data as given in patent US11603355B2, “Charged ion channel blockers and methods for use” (Nocion Therapeutics, Inc., priority 2019, dated 2023).

Columns and labels:
NaV1.7 [1] = biological target: T1, NaV1.7 (Homo sapiens, UniProt Q15858); assay: Automated patch clamp (Qube 384), internal block of NaV1.7; format: cell-based; conditions: IC50, compound in internal solution, HEK293 cells, read-out: Nav1.7 Intracellular Inhibition
T1 construct: expressed in transfected cells; host or cells: HEK293 (tetracycline-inducible)
Protocol: (§1) NaV1.7 was expressed in HEK293 cells upon induction with tetracycline. Cells were cultured in DMEM containing 10% dialyzed Fetal Bovine Serum (VWR, Radnor, Pa.), 1% Glutamax (VWR, Radnor, Pa.), 1% Penicillin-Streptomycin (VWR, Radnor, Pa.), 100 mg/L Hygromycin (Thermo Fisher Scientific, Waltham, Mass. and 5 mg/L Blasticidin (Alfa Aesar, Haverhill, Mass.). Cells were grown and maintained at 37° C. in a humidified environment containing 10% CO2 in air. Cells were detached from the culture flask for passage and harvested using 0.05% Trypsin-EDTA (Thermo Fisher Scientific, Waltham, Mass.). To induce NaV1.7, cells were induced with tetracycline (0.1-1 μg/mL, IBI Scientific, Peosta, Iowa) the day before recording.
Before experiments, cells were washed with DPBS (VWR, Radnor, Pa.), digested with Detachin (VWR Radnor, Pa.) and then triturated 10 times in CHO Serum-Free Media (VWR Radnor, Pa.) to resuspend the cells and to break apart cell aggregates. Cells were counted and the final concentration was set at 2-5 million cells per mL.
The intracellular solution contained the following: 140 mM CsF, 1 mM/5 mM EGTA/CsOH, 10 mM HEPES, 10 mM NaCl, adjusted to pH 7.3 with CsOH, and osmolality to 320 with OSM solution. The external solution contained the following: 145 mM NaCl, 4 mM KCl, 1 mM MgCl2, 2 mM CaCl2), 10 mM HEPES, 10 mM Glucose, adjusted to pH 7.4 with CsOH and osmolality to 305 with OSM solution. The OSM solution was a normal Ringer solution containing (in mM) NaCl 155, HEPES 10, sucrose, KCl 3.5, CaCl2) 1.5, MgCl2 1 adjusted to pH 7.4 with NaOH. All chemicals are from Sigma-Aldrich, St. Louis, Mo. In order to test the degree of internal block by test compounds, the compounds were dissolved in internal solution at the indicated test concentration. […] In order to test the degree of external block by test compounds the compounds were dissolved in external solution at the indicated test concentration.
Automated Patch Clamps were performed on Qube 384 (Sophion Bioscience, Woburn Mass.) with multihole Qchips at a temperature setting of 22 degrees. The whole cells configuration was formed with default Qube seal and break-in parameter. The membrane potential was held at −100 mV before the voltage protocol began. Two voltage protocols were followed.
Step 1: Cells were held at −100 mV with a depolarized pulse to −20 mV for 10 ms, the interval was set at 5 s. Currents were corrected by default leak subtraction from every pulse. The duration was set at 5 mins.
Step 2: Cells were held at −100 mV with a depolarized pulse to −20 mV for 10 ms. The frequency was 5 Hz. Currents were corrected by leak subtraction calculated before step 2. The duration was set at 4 mins.
After Step 2, the Qchip was removed from the recording chamber. The internal solution was changed with solutions containing test compounds. Qchips were held at −100 mV without pulsing after being replaced in the recording chamber. The total solution switching time was 8 minutes. After the internal solution exchange, Cells were recorded and step 2 for repeated for 10 minutes.
Data analysis was performed by Sophion Analyzer. Cells were filtered with minimum 50 MOhm seal resistance and minimum 5 nA starting current. The rundown of the currents was corrected with control cells (Non-Drug). The remaining was calculated by averaging last 3 points in the end of experiments. The base line was calculated as the average of last 3 points of Step 2.
IC50 curves were plotted with DR-plots/Hill function (a dose-response plot with a Hill fit).
Representative examples of the invention were tested for intracellular inhibition of NaV 1.7 in the automated patch clamp assay. Activity Range is reported as IC50: “++++” (<0.3 μM), “+++” (0.3-1 μM), “++” (1-3 μM) or “+” (3-10 μM).

[2] = PAMPA membrane permeability assay; format: in vitro ADME; conditions: permeability coefficient, pH 7.4 buffer, GIT lipid, 4 hours incubation
Protocol: The PAMPA assay (pION, Inc., Woburn Mass.) was used to determine the ability of compounds of the invention to cross an artificial lipid membrane by passive diffusion. Test compounds were dissolved in DMSO (10 mM) and diluted 200-fold in buffer (pION Inc., pH 7.4) to provide 50 uM stock solutions. Buffer (150 μL) was added to a UV blank plate and stock solutions (150 μL) were transferred to a UV reference plate. The blank and reference spectrum were read using a spectrophotometer. Stock solutions (200 μL) were added to the donor plate of the PAMPA sandwich plate and an accept plate painted with GIT lipid (pION Inc, 5) was placed on top. Buffer (200 μL) was added to the acceptor plate and the PAMPA sandwich plate was incubated for 4 hours. Aliquots (150 μL) from the acceptor plate were added to a UV plate and read as acceptor spectrum. Aliquots (150 μL) of the donor solutions were added to a UV analysis plate and read as donor spectrum. The permeability coefficient of test compounds was calculated using PAMPA Explorer™ software (version 3.5.0.4) based on the AUC of the reference plate, the donor plate, and the acceptor plate.
The PAMPA permeability results (10^−6 cm/s) of representative compounds are reported as “+” (<0.1 10^−6 cm/s), “++” (0.1-2.0 10^−6 cm/s), “+++” (2.0-10.010^−6 cm/s) or “++++” (>10.0 10^−6 cm/s).

NaV1.7 [3] = biological target: T1, NaV1.7; assay: Manual patch clamp, internal block of NaV1.7 current; format: cell-based; conditions: compound in internal solution, HEK293 cells, read-out: Nav1.7 Intracellular Inhibition; for inhibition at 3 µM: % inhibition at 3 μM test concentration; for inhibition at 10 µM: % inhibition at 10 μM test concentration
Protocol: Representative compounds of the invention were synthesized according to the described methods and tested for the ability to inhibit voltage-gated sodium channels.
as §1, with “recording and plated onto 24-well plates. Cells were washed with DPBS (VWR, Radnor, Pa.), trypsinized and then triturated five times in 10 mL of growth media to break apart cell aggregates. For one 24-well plate, 2 mL of cell suspension was mixed with 23 mL of fresh growth media and 0.1-1 μg/mL tetracycline added. 1 ml of mixed media with cells was then added to each well of a 24-well plate, with a 12 mm coverslip already placed in the bottom of the well. Cells were then incubated in 37° C. and 10% CO2 overnight.” for “recording.”
The intracellular solution contained the following (in mM) CsCl 135, NaCl 10, EGTA 10, HEPES 10, MgCl2 2, adjusted to pH 7.2 with CsOH. The external solution was a normal Ringer solution containing (in mM) NaCl 155, HEPES 10, glucose 10, KCl 3.5, CaCl2 1.5, MgCl2 1 adjusted to pH 7.4 with NaOH. CsCl is from Alfa Aesar, Haverhill, Mass. All other chemicals are from Sigma-Aldrich, St. Louis, Mo. In order to test the degree of internal block by test compounds the compounds were dissolved in internal solution at the indicated test concentration. […] In order to test the degree of external block by test compounds the compounds were dissolved in external solution at the indicated test concentration.
18-24 hours after cells were induced with tetracycline, coverslips were placed into a chamber filled with Normal Ringer solution at room temperature and the chamber placed on a microscope. Pipettes were pulled from borosilicate glass on a P97 puller (Sutter Instrument, Novato, Calif.) and polished with a MF-830 Microforge (Narishige International USA, Inc., Amityville, N.Y.) to have a resistance of 1.5-2.5 MΩ when filled with CsCl internal solution at room temperature. Healthy cells (those that are round and translucent with no visible blemishes) were chosen for seal formation. A seal was formed between the pipette and the cell, and a brief pulse of suction was used to “break in” and establish the whole-cell configuration. The membrane potential was held at −100 mV before the voltage protocol began. Only cells with series resistance between 1.5-5 MΩ were retained for analysis. The voltage protocol was as follows: Cells were held at −100 mV for 12 ms followed by a hyperpolarizing step to −105 mV for 12 ms to monitor the leak. Cells were then stepped back to −100 mV for 40 ms. Cells were then depolarized to −20 mV for 10 ms and then returned to −100 mV for 26 ms.
Once the recording was started, the voltage protocol was run at 30 second intervals for 5 minutes to get a stable baseline. This was followed by four 30-second periods of 5 Hz stimulation of the same voltage protocol separated by 1 minute of rest which was then followed by 0.33 Hz stimulation after the last train. Currents were recorded using PatchMaster software with Heka EPC10 (HEKA Electronics, Lambrecht, Germany). Only cells with inward current amplitudes at −20 mV between 400 pA and 4 nA were accepted. In addition, cells having leak currents greater than 10% of their current amplitudes were discarded. […]

T1 sequence (Q15858 whole entry): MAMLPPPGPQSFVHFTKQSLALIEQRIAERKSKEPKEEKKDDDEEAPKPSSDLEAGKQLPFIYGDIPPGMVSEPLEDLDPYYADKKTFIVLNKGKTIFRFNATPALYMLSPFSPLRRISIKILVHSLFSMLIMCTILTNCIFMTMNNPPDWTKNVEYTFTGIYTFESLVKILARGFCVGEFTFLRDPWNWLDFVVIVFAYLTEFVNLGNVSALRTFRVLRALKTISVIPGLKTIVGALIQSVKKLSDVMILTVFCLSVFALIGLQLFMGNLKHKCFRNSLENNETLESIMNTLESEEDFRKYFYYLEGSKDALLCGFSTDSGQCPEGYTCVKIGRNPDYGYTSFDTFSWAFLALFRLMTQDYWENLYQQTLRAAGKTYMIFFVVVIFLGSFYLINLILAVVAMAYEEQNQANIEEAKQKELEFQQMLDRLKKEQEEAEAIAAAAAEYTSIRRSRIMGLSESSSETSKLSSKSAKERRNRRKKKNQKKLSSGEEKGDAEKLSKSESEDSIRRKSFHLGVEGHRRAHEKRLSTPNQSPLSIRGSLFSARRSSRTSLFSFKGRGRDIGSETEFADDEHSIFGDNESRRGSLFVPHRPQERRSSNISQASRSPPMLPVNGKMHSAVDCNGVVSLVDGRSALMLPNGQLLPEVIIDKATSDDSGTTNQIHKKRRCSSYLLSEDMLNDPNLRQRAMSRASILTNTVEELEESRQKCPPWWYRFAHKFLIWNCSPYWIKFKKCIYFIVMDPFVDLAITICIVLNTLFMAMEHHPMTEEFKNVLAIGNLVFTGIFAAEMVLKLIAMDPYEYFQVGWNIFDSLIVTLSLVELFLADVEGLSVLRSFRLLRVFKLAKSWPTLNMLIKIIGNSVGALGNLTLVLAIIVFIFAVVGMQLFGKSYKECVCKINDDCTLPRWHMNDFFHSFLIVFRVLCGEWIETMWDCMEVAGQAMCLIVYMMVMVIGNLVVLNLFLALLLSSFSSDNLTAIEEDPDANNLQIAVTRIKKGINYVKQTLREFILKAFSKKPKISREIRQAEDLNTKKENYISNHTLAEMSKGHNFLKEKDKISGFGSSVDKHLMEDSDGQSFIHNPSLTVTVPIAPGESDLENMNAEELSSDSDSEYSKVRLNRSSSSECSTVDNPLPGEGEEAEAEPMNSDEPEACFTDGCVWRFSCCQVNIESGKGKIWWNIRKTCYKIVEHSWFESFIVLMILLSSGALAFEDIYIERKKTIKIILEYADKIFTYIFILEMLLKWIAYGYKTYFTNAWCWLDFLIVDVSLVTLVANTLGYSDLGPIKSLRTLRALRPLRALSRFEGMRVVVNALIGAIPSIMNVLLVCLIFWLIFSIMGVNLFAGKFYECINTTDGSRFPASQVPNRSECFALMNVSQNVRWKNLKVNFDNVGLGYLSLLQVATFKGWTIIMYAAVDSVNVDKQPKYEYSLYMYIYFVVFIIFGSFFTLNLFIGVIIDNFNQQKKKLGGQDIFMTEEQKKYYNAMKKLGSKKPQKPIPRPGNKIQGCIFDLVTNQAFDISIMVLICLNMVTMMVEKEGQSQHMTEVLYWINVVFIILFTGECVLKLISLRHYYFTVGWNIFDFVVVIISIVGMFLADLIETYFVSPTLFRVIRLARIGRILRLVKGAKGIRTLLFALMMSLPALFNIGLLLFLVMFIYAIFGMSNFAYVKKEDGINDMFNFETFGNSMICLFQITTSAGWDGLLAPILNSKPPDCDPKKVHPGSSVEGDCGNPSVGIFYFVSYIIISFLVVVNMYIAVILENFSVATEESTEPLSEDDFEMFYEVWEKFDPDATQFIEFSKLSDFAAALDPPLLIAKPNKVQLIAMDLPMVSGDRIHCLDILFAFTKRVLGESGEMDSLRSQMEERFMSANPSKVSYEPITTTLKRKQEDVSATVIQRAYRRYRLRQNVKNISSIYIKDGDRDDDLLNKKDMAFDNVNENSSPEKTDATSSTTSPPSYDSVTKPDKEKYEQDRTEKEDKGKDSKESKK

Structure (SMILES): CCC(C(=O)Nc1c(C)cccc1C)[N+]1(Cc2ccccc2)CCCCCC1 (stereo not shown) [Compound 30]
- IC50 (NaV1.7 [1]): < 0.3 µM

Structure (SMILES): Cc1cccc(C)c1NC(=O)C[N+]1(Cc2ccccc2)CCCC(C(=O)NC2CCCC2)C1.[Br-] (stereo not shown) [Compound 60A]
- PAMPA (10^−6 cm/s) [2]: + (“+” (<0.1 10^−6 cm/s))
- IC50 (NaV1.7 [1]): 1 to 3 µM

Structure (SMILES): Cc1cccc(C)c1NC(=O)C[N+]1(Cc2ccccc2)CCCC(C(=O)OC2CCCC2)C1.[Br-] (stereo not shown) [Compound 50A]
- PAMPA (10^−6 cm/s) [2]: + (“+” (<0.1 10^−6 cm/s))
- IC50 (NaV1.7 [1]): 1 to 3 µM

Structure (SMILES): Cc1cccc(C)c1OCC[N+]1(Cc2ccccc2)CCCCCC1 [Compound 85A, 1-benzyl-1-(2-(2,6-dimethylphenoxy)ethyl) azepan-1-ium bromide]
- inhibition at 3 µM (NaV1.7 [3]): > 90%
- inhibition at 10 µM (NaV1.7 [3]): > 95%
- IC50 (NaV1.7 [1]): 1 to 3 µM

Structure (SMILES): CCC(C(=O)Nc1c(C)cccc1C)[N+]1(Cc2cccc(C#N)c2)CCCCC1 (stereo not shown) [Compound 14]
- IC50 (NaV1.7 [1]): 0.3 to 1 µM

Structure (SMILES): CCC(C(=O)Nc1c(C)cccc1C)[N+]1(Cc2cccc(O)c2)CCCCC1 (stereo not shown) [Compound 29]
- IC50 (NaV1.7 [1]): < 0.3 µM

Structure (SMILES): Cc1cccc(C)c1NC(=O)C[N+]1(Cc2ccccc2)CCCC(C(=O)OCC(C)C)C1.[Br-] (stereo not shown) [Compound 48A]
- PAMPA (10^−6 cm/s) [2]: + (“+” (<0.1 10^−6 cm/s))
- IC50 (NaV1.7 [1]): 1 to 3 µM

Structure (SMILES): CCC(C(=O)Nc1c(C)cccc1C)[N+]1(Cc2cccc(Cl)c2)CCCCC1 (stereo not shown) [Compound 11]
- IC50 (NaV1.7 [1]): 0.3 to 1 µM

Structure (SMILES): CCC(C(=O)Nc1c(C)cccc1C)[N+]1(Cc2cccc(OC)c2)CCCCC1 (stereo not shown) [Compound 23]
- IC50 (NaV1.7 [1]): 0.3 to 1 µM

Structure (SMILES): Cc1cccc(C)c1NC(=O)C[N+]1(Cc2ccccc2)CCCCCC1 [Compound 3]
- IC50 (NaV1.7 [1]): 0.3 to 1 µM

Structure (SMILES): Cc1cccc(C)c1NC(=O)C[N+]1(Cc2ccccc2)CCCC(C(=O)NC2CCCCC2)C1.[Br-] (stereo not shown) [Compound 61A]
- PAMPA (10^−6 cm/s) [2]: + (“+” (<0.1 10^−6 cm/s))
- IC50 (NaV1.7 [1]): 3 to 10 µM

Structure (SMILES): Cc1cccc(C(F)(F)F)c1NC(=O)C[N+]1(Cc2ccccc2)CCCCCC1 [Compound 73A]
- inhibition at 3 µM (NaV1.7 [3]): > 90%
- IC50 (NaV1.7 [1]): 0.3 to 1 µM

Structure (SMILES): CCCN(CCC)C(=O)C1CCC[N+](CC(=O)Nc2c(C)cccc2C)(Cc2ccccc2)C1 (stereo not shown) [Compound 67A]
- IC50 (NaV1.7 [1]): 1 to 3 µM

Structure (SMILES): CCC(C(=O)Nc1c(C)cc(C)cc1C)[N+]1(Cc2ccccc2)CCCCC1.[Br-] (stereo not shown) [Compound 39A, 1-benzyl-1-(1-(mesitylamino)-1-oxobutan-2-yl) piperidin-1-ium bromide]
- PAMPA (10^−6 cm/s) [2]: + (“+” (<0.1 10^−6 cm/s))
- inhibition at 10 µM (NaV1.7 [3]): 70 to 95%

Structure (SMILES): CCC(C(=O)Nc1c(C)cccc1C)[N+]1(Cc2cnn(C)c2)CCCCC1.[Br-] (stereo not shown) [Compound 34A, 1-(1-((2,6-dimethylphenyl)amino)-1-oxobutan-2-yl)-1-((1-methyl-1H-pyrazol-4-yl)methyl) piperidin-1-ium bromide]
- PAMPA (10^−6 cm/s) [2]: + (“+” (<0.1 10^−6 cm/s))
- inhibition at 3 µM (NaV1.7 [3]): 70 to 90%

Structure (SMILES): CCC(C(=O)Nc1c(C)cccc1C)[N+]1(Cc2ccc(C)cc2)CCCCC1 (stereo not shown) [Compound 16A]
- PAMPA (10^−6 cm/s) [2]: + (“+” (<0.1 10^−6 cm/s))
- inhibition at 10 µM (NaV1.7 [3]): > 95%

Structure (SMILES): Cc1cccc(C)c1NC(=O)C[N+](C)(C)Cc1ccccc1 [Compound 2A, N-benzyl-2-((2,6-dimethylphenyl)amino)-N,N-dimethyl-2-oxoethan-1-aminium bromide]
- PAMPA (10^−6 cm/s) [2]: + (“+” (<0.1 10^−6 cm/s))
- inhibition at 10 µM (NaV1.7 [3]): 40 to 70%

Structure (SMILES): CCc1cccc(C[N+]2(C(CC)C(=O)Nc3c(C)cccc3C)CCCCC2)c1 (stereo not shown) [Compound 20]
- IC50 (NaV1.7 [1]): 1 to 3 µM

Structure (SMILES): CCC(C(=O)Nc1c(C)cccc1C)[N+]1(Cc2cccc(OC)c2)CCCCC1 (stereo not shown) [Compound 23A, 1-(1-((2,6-dimethylphenyl)amino)-1-oxobutan-2-yl)-1-(3-methoxybenzyl) piperidin-1-ium bromide]
- PAMPA (10^−6 cm/s) [2]: + (“+” (<0.1 10^−6 cm/s))
- inhibition at 10 µM (NaV1.7 [3]): 70 to 95%
